Measured values as given in PubChem BioAssay AID1159559 (GlaxoSmithKline (GSK), 2015).
Activity calls are given as the source filed them.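 How the source made its calls: active means compounds whose IC50 against parasite growth in infected mouse cells is below 50000 nM; inactive means the rest.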

Each molecule was assayed on T. cruzi Tulahuen in NIH-3T3, beta-gal fluorescence, 4 d (assay: T. cruzi intracellular growth inhibition, cell-based (AID 1159559)).
Work on `O=C(Nc1nc(-c2ccccn2)cs1)N1C[C@H]2C[C@@]2(c2ccccc2)C1` yielded an IC50 of 0.5 µM. With `c1ccc(CCNCc2cncc3nc(-c4cnccn4)n(C4CCCCC4)c23)cc1` the IC50 was 0.32 µM. `CN(Cc1cccnc1)Cc1ccc(N2CCN(C(=O)C3(c4ccc(Cl)cc4)CC3)CC2)nc1` gave an IC50 of 0.5 µM. With `COc1cc(C(C)C)c(S(C)(=O)=O)cc1C(=O)N1CCN(c2ccccc2Cl)CC1` the IC50 was 1.6 µM. `CC1(C)CCC(=Cc2ccc(Cl)cc2)CC1(O)Cn1ccnc1` (stereo not drawn) was tested, and the IC50 was 0.0063 µM. Molecule `Cc1cc(C)c(C#N)c(SCC(=O)c2ccc3c(c2)OCO3)n1` has an IC50 of 2 µM. For `CC(C)(C)C(=O)Nc1cc(C2CC2)nn1-c1nc2c(c(=O)[nH]1)CCCC2`, the IC50 was 0.5 µM. `CCS(=O)(=O)c1cccc(C(=O)Nc2nc(-c3ccccn3)cs2)c1` showed an IC50 of 1.6 µM. For `Cn1nc(C(=O)N2CCc3ccccc32)c2c1CCS(=O)(=O)C2`, the IC50 was 7.9 µM. `Cc1cc(Oc2cc(Cl)c(Cl)cc2Cl)n2ncnc2n1` gave an IC50 of 5 µM. `NCc1csc(Nc2cc(Oc3ccccc3)ncn2)n1` was tested, and the IC50 was 32 µM. Molecule `CN(Cc1nc2ccc(C(=O)NCC3CCCCC3)cc2[nH]1)C1CCCc2cccnc21` (stereo not drawn) has an IC50 of 0.5 µM. For `CC(C)(C)C(=O)NCCc1csc(-c2ccc(F)cc2)n1`, the IC50 was 3.2 µM. Work on `COc1cc(F)c2ncc(F)c(CCN3CC[C@H](NCc4cc5c(cn4)OCS5)[C@@H](O)C3)c2c1` yielded an IC50 of 0.4 µM. With `CN(C)c1ncc(-c2cncn2CCOc2ccc(Cl)cc2)cn1` the IC50 was 0.2 µM. Molecule `COc1ccc(CN(C)Cc2ccncc2)cc1-c1ccc(S(=O)(=O)NC2CCC2)s1` has an IC50 of 0.5 µM. With `CC(C)Oc1ccc(C(=O)Nc2ccc(N3CCOCC3)c(Cl)c2)cc1` the IC50 was 1.6 µM. With `CC(c1ccccn1)N(C)Cc1nc2ccccc2n1C(C)C` (stereo not drawn) the IC50 was 1.6 µM. In the case of `O=C(C1CCCCC1)N1CCN(c2nnc(-c3ccccc3)c3ccccc23)CC1`, the IC50 is reported as 1 µM. In the case of `COc1ccc(C2C3CCCCC3(O)CCN2CC(=O)Nc2ccc(Cl)cc2Cl)cc1` (stereo not drawn), the IC50 is reported as 2.5 µM. `CC(Cn1ccnc1)NC(=O)COc1ccc(Cl)c(Cl)c1` (stereo not drawn) gave an IC50 of 0.2 µM. For `Cc1cccnc1CN1CCN(CCCOc2ccc(-c3ccc(C(N)=O)cc3)cc2)CC1`, the IC50 was 0.63 µM. For `COc1ncc(-c2ccc3nccc(-c4ccncc4)c3c2)cc1NS(C)(=O)=O`, the IC50 was 1.6 µM. Molecule `Cn1cc(CN2CCN(c3ccc4c(c3)CCN(C(=O)[C@H]3C[C@@H]3c3ccccc3)CC4)CC2)cn1` has an IC50 of 1.6 µM. Work on `N#Cc1cccc(Cc2cc(Nc3cc(C4CC4)[nH]n3)nc(N3CC[C@H]3C(N)=O)n2)c1` yielded an IC50 of 0.4 µM. `CCOc1ccc(Nc2ccc(S(=O)(=O)N3CCN(C)CC3)cc2[N+](=O)[O-])cc1OCC` gave an IC50 of 7.9 µM. In the case of `CCn1c(-c2nonc2N)nc2c([C@@H](C)O)ncc(O[C@H](CN)c3ccccc3)c21`, the IC50 is reported as 7.9 µM. With `CCOc1ccc(OCC(=O)N2c3ccccc3CC2C(=O)NC)cc1` (stereo not drawn) the IC50 was > 50 µM (inactive). For `Cc1cc(N2CCc3ccccc3C2)nc(Nc2ccc(S(=O)(=O)N3CCOCC3)cc2)n1`, the IC50 was > 50 µM (inactive). Molecule `COc1ccc(S(=O)(=O)NCc2ccc(-c3ccc(CN(C)CCO)cc3)cc2)cc1` has an IC50 of 0.04 µM. `Cn1c(CN2CCN(c3ncc(C(F)(F)F)cc3Cl)CC2)nc2ccncc21` gave an IC50 of 0.79 µM. For `OCCCNc1nc(Nc2ccncc2)nc2ccccc12`, the IC50 was 0.63 µM. Work on `COc1ccc(NS(=O)(=O)c2cc(NC(=O)Cc3ccc(C)cc3)ccc2N2CCOCC2)cc1` yielded an IC50 of 2 µM. For `NC(N)=Nc1nc(-c2ccc(NC(N)=NCCN3CCCC3)cc2)cs1`, the IC50 was > 50 µM (inactive). With `Cc1sc(C)c(C(F)(F)F)c1CNCCCNc1cc(=O)c2ccccc2[nH]1` the IC50 was 0.79 µM. Work on `CNc1cc(C)nc(C2CN(C(=O)c3n[nH]c4ccccc34)CCO2)c1` (stereo not drawn) yielded an IC50 of 1.3 µM. Molecule `COc1ccc(C(=O)Nc2c(C)nn(COc3cccc(C(F)(F)F)c3)c2C)cc1` has an IC50 of 25 µM. Molecule `CC1CCCN(S(=O)(=O)c2ccc(C(=O)Nc3nc(-c4ccccn4)cs3)cc2)C1` (stereo not drawn) has an IC50 of 0.4 µM. Molecule `O=C(Cn1cnc([N+](=O)[O-])n1)Nc1ccc(Cl)cc1C(=O)c1ccccc1` has an IC50 of 0.25 µM. In the case of `COc1ccc2c(Cl)c(C(=O)N3CCC3)sc2c1Cl`, the IC50 is reported as 0.4 µM. In the case of `Cc1ccc(S(=O)(=O)Nc2ccc(CN3CCN(C(=O)c4cccc(C#N)c4)CC3)cc2)cc1`, the IC50 is reported as 0.5 µM. In the case of `COc1ccc(CN2C(=O)C(O)(CC(=O)c3ccncc3)c3cc(Br)ccc32)cc1OC` (stereo not drawn), the IC50 is reported as 2.5 µM. `Cc1nc(-c2ccc3c(c2)OCO3)sc1C(=O)NCc1ccc2c(c1)OCO2` gave an IC50 of 3.2 µM. For `O=C(CN(Cc1ccccn1)Cc1ccccn1)NC1Cc2ccccc2C1`, the IC50 was 5 µM. Molecule `CN(Cc1nc2c(C(=O)N3CCN(Cc4ccccc4)CC3)cccc2[nH]1)C1CCCc2cccnc21` (stereo not drawn) has an IC50 of 0.79 µM. `O=c1cc(NCCCNC2CCOc3c(I)cc(Cl)cc32)[nH]c2ccccc12` (stereo not drawn) was tested, and the IC50 was 0.79 µM. For `COc1cccc(-c2cc(C(F)(F)F)nc(-n3ccc([N+](=O)[O-])n3)n2)c1`, the IC50 was 0.4 µM. Work on `N#Cc1cccc(CN2CCC(c3nc(-c4ccc(C(F)(F)F)nc4)no3)CC2)c1` yielded an IC50 of 2 µM. `CN(C)S(=O)(=O)c1ccc(Cl)c(C(=O)Nc2nc(-c3ccccn3)cs2)c1` gave an IC50 of 1.6 µM. In the case of `O=C1NCCn2ccc(Nc3nc(NC4CCC(O)CC4)ncc3Cl)c21` (stereo not drawn), the IC50 is reported as 6.3 µM. With `Cc1nn(-c2ccccc2)nc1CNC(=O)CN(Cc1ccccn1)Cc1ccccn1` the IC50 was 4 µM. `CN(C)Cc1ccc(N2CCC(NS(=O)(=O)c3ccc(Cl)cc3)CC2)cc1` was tested, and the IC50 was 0.79 µM. `CC(=O)Nc1ccc(Nc2nccc(-c3cnn4ncccc34)n2)cc1C(F)(F)F` gave an IC50 of 0.05 µM. For `CNC(=O)C1Cc2ccccc2N1C(=O)COc1cccc(OC)c1` (stereo not drawn), the IC50 was > 50 µM (inactive). Molecule `CS(=O)(=O)c1ccc(CC(=O)Nc2nc(-c3ccc(Cl)s3)cs2)cc1` has an IC50 of 0.4 µM. For `O=C(Nc1nc2ccccc2[nH]1)c1ccc2nc[nH]c2c1`, the IC50 was 25 µM. Work on `COc1cnc2ccc(=O)n(CCN3CCC(NC/C=C/c4cc(F)ccc4F)CC3)c2c1` yielded an IC50 of 0.016 µM. Work on `CCCCN(C(=O)c1ccc(NC(=O)C(C)C)cc1)c1ccccc1` yielded an IC50 of 20 µM. Work on `CC(=O)NCCNc1cc(-c2ccnc(Nc3cccc(Cl)c3)n2)ccn1` yielded an IC50 of 0.4 µM. For `COc1ccc(NC(=O)c2ccc(NC(=O)CN(c3ccccc3C)S(C)(=O)=O)cc2)cc1`, the IC50 was 32 µM. `CCN(CC)c1nc(Nc2ccncc2)nc2ccccc12` showed an IC50 of 0.13 µM. In the case of `COc1ccc2nccc(NC(=O)C3(OC)CCN(CC(O)c4ccc5c(c4)OCCO5)CC3)c2n1` (stereo not drawn), the IC50 is reported as 0.25 µM. `Cc1cc(Nc2cc(C3CC3)[nH]n2)nc(N2CCC[C@H]2C(N)=O)n1` was tested, and the IC50 was 0.13 µM. Molecule `C[C@@H](Oc1cc(-n2cnc3ccc(C(O)CO)cc32)sc1C(N)=O)c1ccccc1C(F)(F)F` (stereo partly drawn) has an IC50 of 5 µM. `Cc1cc(NC(=O)CC2CCCCC2)n(-c2nc3c(c(=O)[nH]2)CCC3)n1` was tested, and the IC50 was 0.25 µM. `O=c1[nH]c(C=Cc2cccc(OCCOc3ccccc3)c2)nc(O)c1[N+](=O)[O-]` was tested, and the IC50 was 0.79 µM. Molecule `CCNc1cc(-c2ccccn2)nc(Nc2ccccc2)n1` has an IC50 of 0.79 µM. `N#Cc1cnc(Nc2cccc(CCN3CCOCC3)c2)nc1Nc1ccccc1C(N)=O` was tested, and the IC50 was 1.3 µM. `COc1ncc(-c2ccc3nccc(-c4ccncc4)c3c2)cc1NS(=O)(=O)C1CC1` was tested, and the IC50 was 0.32 µM. Work on `O=c1[nH]ccc2ccc(-c3ccncc3)cc12` yielded an IC50 of 0.2 µM. `CN(Cc1ccc(C(N)=O)cc1)C(c1ccc(F)cc1)c1cccnc1` (stereo not drawn) was tested, and the IC50 was 0.16 µM. Molecule `Cc1cc(NC(=O)c2ccc([N+](=O)[O-])s2)ccc1Br` has an IC50 of 0.25 µM. Work on `Cc1ccc2ccc(C(Nc3ccccn3)c3cccnc3)c(O)c2n1` (stereo not drawn) yielded an IC50 of 0.5 µM. In the case of `Cc1ccc(C)c(OC2CCN(C(=O)C(C)n3ccnc3)CC2)c1` (stereo not drawn), the IC50 is reported as 0.16 µM. With `Cc1cc2nc(CN(C)Cc3ncccc3C)[nH]c2cc1C` the IC50 was 0.5 µM. `O=C(CSc1ccc(F)cc1)N[C@@H](Cc1cnc[nH]1)C(=O)NCCc1ccccc1` was tested, and the IC50 was 0.4 µM. Work on `Cc1[nH]nc(-c2nc3ccccc3[nH]2)c1C(=O)NC1CCCNC1` (stereo not drawn) yielded an IC50 of 0.79 µM. In the case of `Cc1nc2nc(C)c(Cc3ccc(C(C)C)cc3)c(=O)n2[nH]1`, the IC50 is reported as 0.5 µM. In the case of `CC(C)n1c(-c2nonc2N)nc2cccc(OCCN3CCCC3)c21`, the IC50 is reported as 10 µM. For `CCCCn1c(=O)c2c(N)onc2n(CCCC)c1=O`, the IC50 was 25 µM. Work on `O=C1c2cnc(N3CCCC3)nc2CN1c1ccc2c(c1)OCO2` yielded an IC50 of 2.5 µM. `COc1ccc(CNc2nsc3ccccc23)cc1OC` gave an IC50 of 6.3 µM. In the case of `NC(=O)c1ncccc1Nc1nc(NC2CCC(O)CC2)ncc1Br` (stereo not drawn), the IC50 is reported as 1.6 µM. Work on `N#Cc1ccccc1S(=O)(=O)N1CCN(C(=O)CNC(=O)c2ccc3c(c2)OCO3)CC1` yielded an IC50 of 16 µM. Molecule `O=C(Cn1cnc2c(-c3ccccc3)csc2c1=O)N1CCCCC1` has an IC50 of 3.2 µM. Molecule `O=[N+]([O-])c1cccc(Nc2cncc(-c3ccccc3CO)c2)c1` has an IC50 of 0.32 µM. With `O=C(CN(Cc1ccccn1)Cc1ccccn1)NCc1ccc(-c2csnn2)cc1` the IC50 was 4 µM. In the case of `c1ccc(-c2nc(NCc3ccco3)c3ccccc3n2)nc1`, the IC50 is reported as 6.3 µM. `O=C(c1ccc(O)c(Cl)c1)N1CCN(c2cnccn2)CC1` was tested, and the IC50 was > 50 µM (inactive). `Cc1[nH]c2ccccc2c(=O)c1Cc1c(C)[nH]c2ccccc2c1=O` showed an IC50 of 2.5 µM. `O=C(Nc1n[nH]c(-c2ccccn2)n1)C1CC1c1ccccc1` (stereo not drawn) gave an IC50 of 16 µM. In the case of `CC(C)c1sc(Cl)nc1C(=O)NCCc1nc(C(=O)Nc2ccc3c(c2)OCO3)cs1`, the IC50 is reported as 4 µM. For `CCc1c(C)nc(-n2nc(C)cc2NC(=O)COc2ccccc2F)[nH]c1=O`, the IC50 was 0.63 µM. In the case of `Cc1occc1C(=O)Nc1ccccc1C(=O)Nc1nccs1`, the IC50 is reported as > 50 µM (inactive). `O=C(NC(CO)c1ccc(F)cc1)c1ccc(-c2c[nH]c3ncccc23)s1` (stereo not drawn) showed an IC50 of 10 µM. In the case of `COCc1cnc2c(c1SCc1c(F)cccc1Cl)c(=O)n(C)c(=O)n2C`, the IC50 is reported as > 50 µM (inactive). Work on `O=C(Nc1ccc(Br)c(Cl)c1)Nc1ccc2c(c1)OCO2` yielded an IC50 of 2.5 µM. `Cc1ccc(S(C)(=O)=O)cc1Nc1nccc(-c2sc(N)nc2-c2ccccc2)n1` was tested, and the IC50 was 0.13 µM. In the case of `O=C(c1ccccc1)N1CCC(C(=O)N2CCC(Oc3ccccc3Cl)CC2)CC1`, the IC50 is reported as 2 µM. Work on `O=C(NCCc1csc(-c2ccc(F)cc2)n1)c1ccco1` yielded an IC50 of 2 µM. `O=C(Cc1ccccc1)Nc1ccccc1C(=O)Nc1nccs1` gave an IC50 of 40 µM. Work on `O=C(CCc1ccc(-c2ccccc2)o1)N1CCN(c2ccc(O)cc2)CC1` yielded an IC50 of 3.2 µM. `CCc1cccc(CC)c1-n1c(SCC(=O)NC(=O)NCc2ccco2)nnc1-c1cccnc1` gave an IC50 of 13 µM. Molecule `O=C(Nc1nc2cc(Cl)ccc2o1)c1cccc(Cl)c1` has an IC50 of 0.79 µM. `CCOc1ccc(N(C)S(=O)(=O)c2ccc3[nH]cc(C(=O)NC4CCCC4)c(=O)c3c2)cc1` was tested, and the IC50 was 7.9 µM. `CN(Cc1ccccc1)Cc1nnnn1C1CCN(Cc2ccc(-n3ccnc3)cc2)CC1` was tested, and the IC50 was 0.4 µM. Molecule `CCN(C)Cc1ccc(N2CCC(NS(=O)(=O)c3ccc4c(c3)CCO4)CC2)nc1` has an IC50 of 0.63 µM. For `O=C(Nc1cccc(F)c1)N1CCC(Oc2cccc(-c3cccnc3)c2)CC1`, the IC50 was 0.63 µM.
